The values that follow come from BindingDB's records for doi:10.1016/S0045-2068(03)00081-6 (Johns Hopkins University School of Medicine, 2003).

Each structure is given as a SMILES string.

This test concerns the target Serotonin N-acetyltransferase (Ovis aries) (UniProt Q29495). Kind of test: AANAT activity was measured using a spectrophotometric assay in which the enzymatic product CoASH concentration were determined indirectly by monitoring its reaction product with DTNB at 412nm. The conditions noted are these: pH 6.8.

Chain of Serotonin N-acetyltransferase (Ovis aries) (Q29495 whole entry, looked up): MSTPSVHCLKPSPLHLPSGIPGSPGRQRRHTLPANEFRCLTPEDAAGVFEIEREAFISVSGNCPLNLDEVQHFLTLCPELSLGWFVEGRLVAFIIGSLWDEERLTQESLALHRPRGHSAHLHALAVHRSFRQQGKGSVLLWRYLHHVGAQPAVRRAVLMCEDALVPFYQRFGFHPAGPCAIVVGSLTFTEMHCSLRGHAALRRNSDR

For orientation: Ki means the dissociation constant of the complex between target and ligand, obtained from inhibition or displacement. Take `CC(C)(COP(=O)(O)OP(=O)(O)OC[C@H]1OC(n2cnc3c(N)ncnc32)[C@@H](O)[C@@H]1OP(=O)(O)O)[C@@H](O)C(=O)NCCC(=O)NCCSCCCCCc1c[nH]c2ccccc12` (some centres undefined) [AANAT bisubstrate analog, 4]: the affinity corresponds to a Ki of 360 nM.
On to `CC(C)(COP(=O)(O)OP(=O)(O)OC[C@H]1OC(n2cnc3c(N)ncnc32)[C@@H](O)[C@@H]1OP(=O)(O)O)[C@@H](O)C(=O)NCCC(=O)NCCSCCCCc1c[nH]c2ccccc12` (some centres undefined) [AANAT bisubstrate analog, 5], for which the inhibition constant Ki stood at 310 nM.
For the compound `CC(C)(COP(=O)(O)OP(=O)(O)OC[C@H]1OC(n2cnc3c(N)ncnc32)[C@@H](O)[C@@H]1OP(=O)(O)O)[C@@H](O)C(=O)NCCC(=O)NCCSCCCc1c[nH]c2ccccc12` (some centres undefined) [AANAT bisubstrate analog, 6], the affinity corresponds to a Ki of 840 nM.
Take `CC(C)(COP(=O)(O)OP(=O)(O)OC[C@H]1OC(n2cnc3c(N)ncnc32)[C@@H](O)[C@@H]1OP(=O)(O)O)[C@@H](O)C(=O)NCCC(=O)NCCSCCCNCCc1c[nH]c2ccccc12` (some centres undefined) [AANAT bisubstrate analog, 7]: the affinity corresponds to a Ki of 5840 nM.
